Laboratory results reported in PMC10222548, “Semisynthesis, Biological Evaluation and Molecular Docking Studies of Barbatic Acid Derivatives as Novel Diuretic Candidates” (Molecules, 2023).
Like-named read-outs stand apart in the source and are kept apart here.

Tests used:
MDCK cells = assay: MTT cytotoxicity assay on MDCK cells; type: cell-based, canine; conditions: Canis lupus familiaris, 100 μmol/L, 24 h, mean ± SD of three replicates, read-out: Growth Inhibition Rate (%)
Protocol: First, we used the MTT method to perform cytotoxicity of barbatic acid derivatives (1, 6a–6p′) on MDCK cells at the concentration of 100 μmol/L, and the results are shown in Table 1.
The MTT assay was used to evaluate the cytotoxicity of the target compounds on DMCK cells. Logarithmic-growth-phase DMCK cells were seeded in a 96-well plate (10^4 cells/well) and incubated in a cell culture incubator for 24 h. The culture medium was then removed and replaced with a drug-containing medium for the treatment groups (1, 6a–6p′, 100 μmol/L), normal saline for the control group, or hydrochlorothiazide (100 μmol/L) for the positive control group. Each well was treated with 100 µL of the respective solution and incubated for an additional 24 h. The culture medium was then removed and replaced with a DMEM solution containing 20 µL of MTT (5 mg/mL). After incubating for 4 h, the liquid in each well was removed and replaced with 150 µL of DMSO, which was shaken for 10 min to ensure thorough mixing. The absorbance at 490 nm was measured to determine the optical density (OD) of each well. Cell growth inhibition rate (%) = (ODBlank − ODExperimental)/ODBlank × 100%.

[1] = tested on: Na^+ transport, MDCK cells; assay: In vitro diuretic activity: Na^+ transport inhibition, Transwell chamber seeded with MDCK cells; type: cell-based, canine; conditions: for inhibition at 100 µM: Canis lupus familiaris, MDCK
From the text: (§1) The traditional methods for screening diuretic drugs are mostly in vivo experiments with mice, which have a long experimental cycle and are not suitable for screening massive compounds. As we know, the generation and excretion of urine involve two processes: glomerular filtration and tubular reabsorption. Reabsorption refers to the process in which the renal tubular epithelial cells transport water and certain solutes from the tubular fluid (urine) partially or entirely back into the bloodstream. Then, 99% of the water in the original urine filtered by the glomerulus is reabsorbed, and the transport of Na^+ and Cl^− plays an important role in this process. Thiazide and furosemide diuretics exert their diuretic effects by inhibiting the transport of Na^+ and Cl^−, which affects the tubular reabsorption of the original urine. Based on this principle, we established a new type of cell screening model for diuretic active drugs. Madin–Darby canine kidney (MDCK) cells were inoculated into a Transwell chamber to simulate the renal tubules. This cell model could transport and absorb external NaCl, simulating the reabsorption phenomenon. […] The effectiveness of this model was confirmed by the validation of hydrochlorothiazide, which is a commercially available diuretic drug and could inhibit the transport of Na^+ and Cl^− in renal tubules.
(§2) Generally, the transport of Na^+ and Cl^− plays an important role in glomerular filtration and tubular reabsorption. […] For example, inhibition rates of transport of 6a and 6c were over 30%, and had better inhibitory ability than barbatic acid. […] When ethyl, propyl, and benzyl were substituted on R^1, the introduction of any group could not enhance the inhibitory activity of barbatic acid, such as 6h–u and 6j′–6p′.
(§3) Log-phase MDCK cells were seeded in the upper chambers of Transwell plates (4 × 10^4 cells/well), and 800 µL of complete culture medium was added to the lower chambers. After 24 h of incubation at 37 °C, the electrical resistance of the upper chamber cells was measured one by one (R = (Rcell − Rblank) × 0.04π). When the electrical resistance of the upper chamber cells reached ≥300 Ω cm^2, the upper chamber medium was removed and replaced with the drug solution. The blank group (given normal saline), the experimental group (1, 6a–6p′, 100 μmol/L), and the hydrochlorothiazide group (100 μmol/L) were set, and each well was treated with 100 µL of the corresponding solution. The cells were then further incubated for 24 h. After that, the upper and lower chamber fluids were removed, and 200 µL of NaCl solution (15 mg/mL) was added to the upper chamber, while 800 µL of DMEM was added to the lower chamber for continued incubation. At 0.5, 1, 2, and 3 h, 50 µL of the lower chamber fluid was taken and the OD values were measured using Na^+ and Cl^− detection kits. The transport inhibition rate (%) was calculated as follows: transport inhibition rate (%) = (ODblank − ODexperimental)/ODblank × 100%.

[2] = tested on: Cl^− transport, MDCK cells; assay: In vitro diuretic activity: Cl^− transport inhibition, Transwell chamber seeded with MDCK cells; type: cell-based, canine; conditions: Canis lupus familiaris, read-out: Transport Inhibition Rate (%) Cl^−
From the text: as §1, §2, §3

[3] = tested on: Ca^2+ transport, MDCK cells; assay: In vitro litholytic activity: Ca^2+ transport inhibition, Transwell chamber with MDCK cells; type: cell-based, canine; conditions: Canis lupus familiaris, 100 μmol/L, mean ± SD of three replicates, read-out: Transport Inhibition Rate (%) Ca^2+
Protocol: (§4) On the other hand, all compounds had little inhibitory effect on Ca^2+ transport. The structure–activity relationships (SARs) were also observed. […] On the other hand, the introduction of the benzyl group to the R^1 or R^2 of barbatic acid could not lead to more promising compounds, such as 6a, 6n, 6u, 6b′, and 6i′–p′.
(§5) Logarithmic-phase DMCK cells were inoculated in the upper chamber of a Transwell plate (4 × 10^4 cells/well). Then, 800 µL of complete culture medium was added to the lower chamber, and the cells were incubated for 24 h until they adhered to the wall. The resistance value of the upper chamber cells was measured one by one at 37 °C (R = (Rcell − Rblank) × 0.04π). When the resistance value of the upper chamber cells was ≥300 Ω cm^2, the upper chamber liquid was discarded for drug administration. A control group (given physiological saline) and an experimental group (1, 6a–6p′, 100 μmol/L) were set up, and 100 µL of each drug was administered per well, followed by continued incubation for 24 h. Then, the upper and lower chamber liquids were discarded, and 200 µL of CaC2O4 (30 mmol/L) solution was added to the upper chamber, and 800 µL of PBS solution was added to the lower chamber for continued incubation. At 0.5, 1, 2, and 3 h, 50 µL of the lower chamber liquid was taken and then tested using the Ca^2+ and C2O4^2− detection kits and the following detection methods. The transport inhibition rate (%) = (ODblank − ODexperimental)/ODblank × 100%.

[4] = tested on: C2O4^2− transport, MDCK cells; assay: In vitro litholytic activity: C2O4^2− transport inhibition, Transwell chamber with MDCK cells; type: cell-based, canine; conditions: Canis lupus familiaris; 100 μmol/L, MDCK cells in Transwell; mean ± SD of three replicates; read-out: Transport Inhibition Rate (%) C2O4^2−
Protocol: as §4, §5

[5] = 100 μmol/L, MDCK cells in Transwell, mean ± SD of three replicates, negative = promotion, read-out: Transport Inhibition Rate (%) Na^+
[6] = 100 μmol/L, MDCK cells in Transwell, mean ± SD of three replicates, negative = promotion

SMILES	inhibition at 100 µM (MDCK cells)	inhibition at 100 µM [1, 5]	inhibition at 100 µM [2, 6]	inhibition at 100 µM [3]	inhibition at 100 µM [4]	melting point	Transport Inhibition Rate (%) Na^+ [1, 6]	Na^+ transport inhibition rate at 1, 2, and 3 h ([1]; evaluated at 1, 2, and 3 h (Figure 3))	inhibition at 100 µM ([1]; read-out: Transport Inhibition Rate (%) Na^+, 100 μmol/L, MDCK cells in Transwell, mean ± SD of three replicates, negative = promotion)	inhibition at 100 µM ([2]; MDCK)
Cc1cc(OC(=O)c2c(C)cc(OC(C)C)c(C)c2O)c(C)c(O)c1C(=O)OCC#N [6a′, 4-((cyanomethoxy)carbonyl)-3-hydroxy-2,5-dimethylphenyl 2-hydroxy-4-isopropoxy-3,6-dimethylbenzoate]	< 0%	-15.8 ± 4.85%	-10 ± 1.95%	-0.91 ± 0.11%	-13.2 ± 1.67%	155 to 158 °C				
Cc1cc(OC(=O)c2c(C)cc(OC(C)C)c(C)c2O)c(C)c(O)c1C(=O)OCc1ccccc1 [6b′, benzyl 2-hydroxy-4-(2-hydroxy-4-isopropoxy-3,6-dimethylbenzoyloxy)-3,6-dimethylbenzoate]	< 0%	> 30%	15.9 ± 0.25%	0.73 ± 0.08%	-20.6 ± 1.31%	83 to 86 °C	33.08 ± 0.35%	above 20%		
C=CCOc1cc(C)c(C(=O)Oc2cc(C)c(C(=O)OCC)c(O)c2C)c(O)c1C [6d′, 4-(ethoxycarbonyl)-3-hydroxy-2,5-dimethylphenyl 4-(allyloxy)-2-hydroxy-3,6-dimethylbenzoate]	1.42%	-7.24 ± 0.75%	-5.06 ± 0.35%	2.04 ± 0.03%	0.52 ± 1.86%	116 to 120 °C				
C=CCOc1cc(C)c(C(=O)Oc2cc(C)c(C(=O)OCCC)c(O)c2C)c(O)c1C [6e′, 3-hydroxy-2,5-dimethyl-4-(propoxycarbonyl)phenyl 4-(allyloxy)-2-hydroxy-3,6-dimethylbenzoate]	< 0%	2.79 ± 0.25%	-12.9 ± 0.85%	2.04 ± 0.08%	5.77 ± 3.15%					
C=CCOC(=O)c1c(C)cc(OC(=O)c2c(C)cc(OCC=C)c(C)c2O)c(C)c1O [6g′, allyl 4-(4-(allyloxy)-2-hydroxy-3,6-dimethylbenzoyloxy)-2-hydroxy-3,6-dimethylbenzoate]	< 0%	5.29 ± 0.15%	18.6 ± 2.2%	2.79 ± 0.13%	-11.3 ± 1.9%	110 to 113 °C				
C=CCOc1cc(C)c(C(=O)Oc2cc(C)c(C(=O)OCC#N)c(O)c2C)c(O)c1C [6h′, allyl 4-((cyanomethoxy)carbonyl)-3-hydroxy-2,5-dimethylphenyl 4-(allyloxy)-2-hydroxy-3,6-dimethylbenzoate]	< 0%	-14.4 ± 2.4%	0.62 ± 0.7%	-0.38 ± 0.16%	10.7 ± 1.41%	124 to 127 °C				
C=CCOc1cc(C)c(C(=O)Oc2cc(C)c(C(=O)OCc3ccccc3)c(O)c2C)c(O)c1C [6i′, benzyl 4-(4-(allyloxy)-2-hydroxy-3,6-dimethylbenzoyloxy)-2-hydroxy-3,6-dimethylbenzoate]	2.43 ± 0.3%	-12.9 ± 1.6%	-8.43 ± 2.85%	2.68 ± 0.11%	11.4 ± 1.13%	75 to 78 °C				
COC(=O)c1c(C)cc(OC(=O)c2c(C)cc(OCc3ccccc3)c(C)c2O)c(C)c1O [6j′, 3-hydroxy-4-(methoxycarbonyl)-2,5-dimethylphenyl 4-(benzyloxy)-2-hydroxy-3,6-dimethylbenzoate]	< 0%	-5.13 ± 0.25%	0.62 ± 0.8%	0%	-1.79 ± 3.79%	131 to 134 °C				
CCOC(=O)c1c(C)cc(OC(=O)c2c(C)cc(OCc3ccccc3)c(C)c2O)c(C)c1O [6k′, 4-(ethoxycarbonyl)-3-hydroxy-2,5-dimethylphenyl 4-(benzyloxy)-2-hydroxy-3,6-dimethylbenzoate]	1.45 ± 0.1%	14.1 ± 3.2%	-19.6 ± 2.4%	1.34 ± 0.1%	10.3 ± 2.11%	123 to 126 °C				
CCCOC(=O)c1c(C)cc(OC(=O)c2c(C)cc(OCc3ccccc3)c(C)c2O)c(C)c1O [6l′, 3-hydroxy-2,5-dimethyl-4-(propoxycarbonyl)phenyl 4-(benzyloxy)-2-hydroxy-3,6-dimethylbenzoate]	2.11 ± 0.9%	-18.2 ± 0.2%	-2.92 ± 2.15%	-2.68 ± 0.39%	16.5 ± 4.38%	115 to 118 °C				
Cc1cc(OCc2ccccc2)c(C)c(O)c1C(=O)Oc1cc(C)c(C(=O)OC(C)C)c(O)c1C [6m′, 3-hydroxy-4-(isopropoxycarbonyl)-2,5-dimethylphenyl 4-(benzyloxy)-2-hydroxy-3,6-dimethylbenzoate]	< 0%	-0.36 ± 0.4%	-4.93 ± 2.95%	-2.06 ± 0.09%	2.28 ± 1.34%	135 to 138 °C				
C=CCOC(=O)c1c(C)cc(OC(=O)c2c(C)cc(OCc3ccccc3)c(C)c2O)c(C)c1O [6n′, allyl 4-(4-(benzyloxy)-2-hydroxy-3,6-dimethylbenzoyloxy)-2-hydroxy-3,6-dimethylbenzoate]	< 0%	-1.85 ± 0.8%	-13 ± 0.15%	0.1 ± 0.3%	-29.4 ± 3.89%	127 to 130 °C				
NS(=O)(=O)c1cc2c(cc1Cl)NCNS2(=O)=O [Hyd, hydrochlorothiazide, reference compound]	< 0%								25.1 ± 0.85%	19.7 ± 1%
